Measured values reported in the supplement of paper PMC5752671.
Structures can show the parent of a compound that is named as a salt.

Assays:
Experiment in all cases: area under dose-response curve (cell viability) (AUC (arbitrary, % viability x log concentration)); higher = less sensitive (more viable)
Conditions in all cases: 4 days
KG1 = tested on: KG1
Outline: (§1)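 Drugs were dispensed robotically, one day after plating, onto fourteen leukemia cell lines in 384-well plates coated with extracellular matrix. Each drug was tested in duplicate at eight concentrations spanning 4–5 logs inside 10^–12–10^–4 M, adjusted per drug, and CellTiter-Glo readout followed after 4 days. Duplicates were averaged and a four-parameter sigmoid was fitted. The area under that fitted curve is the reported value.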

HL60 = tested on: HL60
Outline: as §1

MV4.11 = tested on: MV4.11
Outline: as §1

SKM1 = tested on: SKM1
Outline: as §1

NB4 = tested on: NB4
Outline: as §1

MOLM/13 = tested on: MOLM/13
Outline: as §1

MOLM/16 = tested on: MOLM/16
Outline: as §1

U937 = tested on: U937
Outline: as §1

PL-21 = tested on: PL-21
Outline: as §1

OCI-AML3 = tested on: OCI-AML3
Outline: as §1

SMILES	area under dose-response curve (KG1)	area under dose-response curve (HL60)	area under dose-response curve (MV4.11)	area under dose-response curve (SKM1)	area under dose-response curve (NB4)	area under dose-response curve (MOLM/13)	area under dose-response curve (MOLM/16)	area under dose-response curve (U937)	area under dose-response curve (PL-21)	area under dose-response curve (OCI-AML3)
COC(=O)c1ccc2c(c1)NC(=O)/C2=C(\Nc1ccc(N(C)C(=O)CN2CCN(C)CC2)cc1)c1ccccc1 [BIBF1120]	636	758	489	677	658	505	653	698	626	685
CC(C)CC(=O)Nc1n[nH]c2c1CN(C(=O)C1CCN(C)CC1)C2(C)C	556	522	352	336	258	329	268	283	452	281
Cc1cnc(Nc2ccc(OCCN3CCCC3)cc2)nc1Nc1cccc(S(=O)(=O)NC(C)(C)C)c1	532	617	392	518	563	400	392	562	516	540
CN(C)C/C=C/C(=O)Nc1cc2c(Nc3ccc(F)c(Cl)c3)ncnc2cc1O[C@H]1CCOC1 [BIBW 2992]	623	663	535	561	598	625	464	625	573	594
CC[C@@H]1C(=O)N(C)c2cnc(Nc3ccc(C(=O)NC4CCN(C)CC4)cc3OC)nc2N1C1CCCC1 [BI-2536]	84.8	79.3	4.22	110	18.2	7.65	90	5.36	7.31	6.18
CNC(=O)c1cc(Oc2ccc(NC(=O)Nc3ccc(Cl)c(C(F)(F)F)c3)cc2)ccn1 [Sorafenib]	651	707	250	644	603	311	537	588	586	674
COCC[n+]1c2c(n(Cc3cnccn3)c1C)C(=O)c1ccccc1C2=O [YM-155]	340	85.2	268	69.8	5.71	8.78	281	125	311	86.8
CO[C@H]1C[C@@H]2CC[C@@H](C)[C@@](O)(O2)C(=O)C(=O)N2CCCC[C@H]2C(=O)O[C@H]([C@H](C)C[C@@H]2CC[C@@H](O)[C@H](OC)C2)CC(=O)[C@H](C)/C=C(\C)[C@@H](O)[C@@H](OC)C(=O)[C@H](C)C[C@H](C)/C=C/C=C/C=C/1C [Rapamycin]	405	544	367	434	561	439	380	296	419	556
NC(=O)Nc1sc(-c2ccc(F)cc2)cc1C(N)=O [TPCA-1]	547	669	609	638	643	626	481	598	585	656
CC[C@]1(O)C[C@@H]2CN(CCc3c([nH]c4ccccc34)[C@@](C(=O)OC)(c3cc4c(cc3OC)N(C)[C@H]3[C@@](O)(C(=O)OC)[C@H](OC(C)=O)[C@]5(CC)C=CCN6CC[C@]43[C@@H]65)C2)C1 [Vinblastine sulfate]	74.8	50.7	4.8	61.1	34.3	6.96	23.2	4.36	9.49	11.7
CC(=O)O[C@H]1C(=O)[C@@]2(C)[C@H]([C@H](OC(=O)c3ccccc3)[C@]3(O)C[C@H](OC(=O)[C@H](O)[C@@H](NC(=O)c4ccccc4)c4ccccc4)C(C)=C1C3(C)C)[C@]1(OC(C)=O)CO[C@@H]1C[C@@H]2O [Paclitaxel]	154	56.2	8.21	99.8	1.43	2.2	18.5	6.61	5.02	133
CC(=O)c1c(C)c2cnc(Nc3ccc(N4CCNCC4)cn3)nc2n(C2CCCC2)c1=O	534	474	423	438	462	439	511	393	404	433
CCCS(=O)(=O)Nc1ccc(F)c(C(=O)c2c[nH]c3ncc(-c4ccc(Cl)cc4)cc23)c1F [PLX-4032]	710	757	702	661	618	643	661	692	638	751
COc1cc2c(N3CCN(C(=O)Nc4ccc(OC(C)C)cc4)CC3)ncnc2cc1OCCCN1CCCCC1 [Tandutinib]	705	729	319	653	588	388	629	672	623	684
CC(C)(C)c1cnc(CSc2cnc(NC(=O)C3CCNCC3)s2)o1 [SNS-032]	619	555	444	430	438	425	474	469	396	476
O=C(NC1CCNCC1)c1n[nH]cc1NC(=O)c1c(Cl)cccc1Cl [AT-7519]	570	544	445	415	488	431	514	414	431	460
Cn1cncc1[C@@](N)(c1ccc(Cl)cc1)c1ccc2c(c1)c(-c1cccc(Cl)c1)cc(=O)n2C [Tipifarnib]	374	490	378	425	215	482	208	313	441	392
COc1cc2/c(=N/c3ccc(Br)cc3F)nc[nH]c2cc1OCC1CCN(C)CC1 [Vandetanib]	626	675	635	678	649	619	669	730	636	697

SMILES	area under dose-response curve (KG1)	area under dose-response curve (HL60)	area under dose-response curve (MV4.11)	area under dose-response curve (SKM1)	area under dose-response curve (NB4)	area under dose-response curve (MOLM/13)	area under dose-response curve (MOLM/16)	area under dose-response curve (U937)	area under dose-response curve (PL-21)	area under dose-response curve (OCI-AML3)
COc1ccc(-c2ccc3c(N4CCOC[C@@H]4C)nc(N4CCOC[C@@H]4C)nc3n2)cc1CO [AZD-8055]	369	537	338	413	526	396	299	310	390	405
CCC1=C[C@@H]2CN(C1)Cc1c([nH]c3ccccc13)[C@@](C(=O)OC)(c1cc3c(cc1OC)N(C)[C@H]1[C@@](O)(C(=O)OC)[C@H](OC(C)=O)[C@]4(CC)C=CCN5CC[C@]31[C@@H]54)C2 [Vinorelbine tartrate]	373	295	315	329	117	298	311	136	297	301
CC[C@H](CO)Nc1nc(NCc2ccccc2)c2ncn(C(C)C)c2n1 [R-roscovitine]	711	640	697	644	605	637	608	658	623	644
Cc1cc(C(=O)NOCCO)c(Nc2ccc(I)cc2F)n(C)c1=O [AZD8330]	371	405	317	44.2	348	416	341	465	205	87.3
CN1CCN(c2ccc3nc(-c4c(N)c5c(F)cccc5[nH]c4=O)[nH]c3c2)CC1 [TKI258]	456	666	313	544	592	323	472	588	588	659
C=C(c1ccc(C(=O)O)cc1)c1cc2c(cc1C)C(C)(C)CCC2(C)C [Bexarotene]	662	661	339	469	644	529	671	608	589	550
COc1cc2c(Oc3ccc4[nH]c(C)cc4c3F)ncnc2cc1OCCCN1CCCC1 [AZD2171]	307	785	656	640	614	659	686	724	646	687
Cc1ccc(S(=O)(=O)/C=C/C#N)cc1 [BAY 11-7082]	495	474	494	467	534	528	520	499	500	461
COc1ccc(-c2ccc3ncc4c(c3c2)n(-c2ccc(N3CCNCC3)c(C(F)(F)F)c2)c(=O)n4C)cn1 [BGT-226]	354	452	399	369	448	403	316	325	367	412
CCCC(CCC)C(=O)O [Valproic acid]	651	703	720	688	649	690	682	692	640	718
Nc1ncnc2c1c(I)cn2[C@@H]1O[C@H](CO)[C@@H](O)[C@H]1O [5-Iodotubercidin]	422	457	313	559	516	427	403	501	497	571
CN1CCN(CCOc2cc(OC3CCOCC3)c3c(Nc4c(Cl)ccc5c4OCO5)ncnc3c2)CC1 [AZD0530]	749	818	617	736	614	671	666	663	641	705
CN1CCC(CNc2ccc3ncc(-c4cccc(OC(F)(F)F)c4)n3n2)CC1 [SGI-1776]	585	686	335	564	553	349	452	615	562	611
Cc1[nH]c2ccccc2c1CCNCc1ccc(/C=C/C(=O)NO)cc1 [Panobinostat]	323	307	259	318	276	283	242	289	319	310
OCCn1cc(-c2cnc3nnn(Cc4ccc5ncccc5c4)c3n2)cn1	664	645	557	616	567	566	592	604	559	552
NC(=O)c1ccc(-c2nc(-c3ccccn3)c(-c3ccc4c(c3)OCO4)[nH]2)cc1	800	824	665	722	600	692	653	695	629	712
Oc1cccc(-c2nc(N3CCOCC3)c3oc4ncccc4c3n2)c1 [PI-103]	525	453	482	463	545	496	285	412	305	442
CNC(=O)c1ccccc1Sc1ccc2c(/C=C/c3ccccn3)n[nH]c2c1 [Axitinib]	479	713	573	679	620	610	577	635	582	641
